Our source for the Activity values is ChEMBL document CHEMBL5678818, “Discovery of potent SOS1 inhibitors that block RAS activation via disruption of the RAS-SOS1 interaction” (Proc Natl Acad Sci U S A, 2019).

In experiment [1] the target is Bone morphogenetic protein receptor type-1A (Homo sapiens) (UniProt P36894). Put plainly: Inhibition of BMPR1A (unknown origin) assessed as residual activity at 1000 nM by KINOMEscan analysis relative to control.
In experiment [2] the target is T1, Ephrin type-B receptor 6 (Homo sapiens) (UniProt O15197).
T1 sequence (whole entry): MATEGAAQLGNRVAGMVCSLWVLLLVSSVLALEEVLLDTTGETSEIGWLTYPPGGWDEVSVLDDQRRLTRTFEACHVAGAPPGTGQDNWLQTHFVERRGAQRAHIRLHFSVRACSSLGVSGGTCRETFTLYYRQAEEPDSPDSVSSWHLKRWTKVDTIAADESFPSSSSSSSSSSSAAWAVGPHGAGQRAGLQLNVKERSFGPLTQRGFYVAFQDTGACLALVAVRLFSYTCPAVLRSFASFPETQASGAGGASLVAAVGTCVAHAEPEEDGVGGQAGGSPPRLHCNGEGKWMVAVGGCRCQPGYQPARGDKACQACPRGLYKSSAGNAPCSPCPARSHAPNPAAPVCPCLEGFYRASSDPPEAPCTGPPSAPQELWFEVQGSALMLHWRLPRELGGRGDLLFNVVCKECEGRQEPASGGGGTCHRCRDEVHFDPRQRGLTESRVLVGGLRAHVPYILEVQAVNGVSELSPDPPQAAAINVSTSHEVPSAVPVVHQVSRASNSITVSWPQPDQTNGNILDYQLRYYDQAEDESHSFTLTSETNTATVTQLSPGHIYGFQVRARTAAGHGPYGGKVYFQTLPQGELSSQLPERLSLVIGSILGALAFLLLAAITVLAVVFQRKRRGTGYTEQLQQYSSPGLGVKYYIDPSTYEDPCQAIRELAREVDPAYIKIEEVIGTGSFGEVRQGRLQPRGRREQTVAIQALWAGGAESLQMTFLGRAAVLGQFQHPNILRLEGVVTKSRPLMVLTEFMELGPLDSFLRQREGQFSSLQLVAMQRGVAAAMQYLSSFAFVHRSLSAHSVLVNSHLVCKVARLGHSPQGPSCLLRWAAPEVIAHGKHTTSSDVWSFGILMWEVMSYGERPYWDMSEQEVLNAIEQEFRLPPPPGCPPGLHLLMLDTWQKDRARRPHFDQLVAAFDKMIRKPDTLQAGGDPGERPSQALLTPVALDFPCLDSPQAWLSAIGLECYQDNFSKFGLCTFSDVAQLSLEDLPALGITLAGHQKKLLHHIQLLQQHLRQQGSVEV
Put plainly: Inhibition of EPHB6 (unknown origin) assessed as residual activity at 1000 nM by KINOMEscan analysis relative to control.

The target in experiment [3] is T2, Serine/threonine-protein kinase Nek1 (Homo sapiens) (UniProt Q96PY6).
T2 sequence (whole entry): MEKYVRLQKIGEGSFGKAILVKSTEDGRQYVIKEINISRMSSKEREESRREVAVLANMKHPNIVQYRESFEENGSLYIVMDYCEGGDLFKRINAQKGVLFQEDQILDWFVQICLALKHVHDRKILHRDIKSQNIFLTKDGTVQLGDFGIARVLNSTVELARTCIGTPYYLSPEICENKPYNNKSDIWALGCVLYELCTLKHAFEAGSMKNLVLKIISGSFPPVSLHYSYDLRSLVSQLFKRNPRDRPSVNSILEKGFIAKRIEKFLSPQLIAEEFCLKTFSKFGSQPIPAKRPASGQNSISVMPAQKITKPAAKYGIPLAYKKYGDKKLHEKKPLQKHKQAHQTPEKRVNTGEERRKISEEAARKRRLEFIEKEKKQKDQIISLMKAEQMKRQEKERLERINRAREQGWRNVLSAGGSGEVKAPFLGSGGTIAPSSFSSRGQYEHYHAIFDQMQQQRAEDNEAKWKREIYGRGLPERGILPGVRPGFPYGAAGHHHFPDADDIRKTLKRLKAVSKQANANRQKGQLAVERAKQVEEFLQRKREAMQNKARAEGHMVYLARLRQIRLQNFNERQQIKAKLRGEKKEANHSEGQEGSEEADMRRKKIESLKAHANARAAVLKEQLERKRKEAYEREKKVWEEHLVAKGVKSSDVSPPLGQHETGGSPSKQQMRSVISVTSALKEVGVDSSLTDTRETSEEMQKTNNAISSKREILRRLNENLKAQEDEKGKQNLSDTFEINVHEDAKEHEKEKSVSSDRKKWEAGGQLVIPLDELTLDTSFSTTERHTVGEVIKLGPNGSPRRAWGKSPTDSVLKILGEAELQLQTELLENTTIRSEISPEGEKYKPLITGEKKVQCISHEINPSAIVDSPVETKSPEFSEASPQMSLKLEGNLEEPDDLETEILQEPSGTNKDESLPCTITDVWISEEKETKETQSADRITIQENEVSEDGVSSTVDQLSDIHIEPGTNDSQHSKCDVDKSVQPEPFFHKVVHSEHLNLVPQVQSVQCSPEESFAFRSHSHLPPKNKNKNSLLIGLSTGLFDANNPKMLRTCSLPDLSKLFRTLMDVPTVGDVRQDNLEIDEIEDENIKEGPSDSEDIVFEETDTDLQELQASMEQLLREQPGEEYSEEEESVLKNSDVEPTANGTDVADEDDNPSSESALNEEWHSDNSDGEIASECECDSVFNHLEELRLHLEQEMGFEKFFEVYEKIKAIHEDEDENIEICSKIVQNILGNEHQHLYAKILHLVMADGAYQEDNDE
Put plainly: Inhibition of NEK1 (unknown origin) assessed as residual activity at 1000 nM by KINOMEscan analysis relative to control.

The target of experiment [4] is T3, Phosphatidylinositol 5-phosphate 4-kinase type-2 beta (Homo sapiens) (UniProt P78356).
T3 sequence (whole entry): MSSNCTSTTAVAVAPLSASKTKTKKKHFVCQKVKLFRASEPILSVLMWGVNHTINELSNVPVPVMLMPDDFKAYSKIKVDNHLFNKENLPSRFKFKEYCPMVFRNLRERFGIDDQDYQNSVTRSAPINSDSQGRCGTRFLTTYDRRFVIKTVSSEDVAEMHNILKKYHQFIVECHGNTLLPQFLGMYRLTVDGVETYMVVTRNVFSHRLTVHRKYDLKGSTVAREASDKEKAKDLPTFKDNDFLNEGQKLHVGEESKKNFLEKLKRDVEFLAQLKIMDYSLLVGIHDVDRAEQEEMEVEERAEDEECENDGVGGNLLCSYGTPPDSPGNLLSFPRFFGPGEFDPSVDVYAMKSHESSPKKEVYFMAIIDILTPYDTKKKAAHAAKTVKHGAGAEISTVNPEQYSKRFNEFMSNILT
The experiment in a line: Inhibition of PIP5K2B (unknown origin) assessed as residual activity at 1000 nM by KINOMEscan analysis relative to control.

Experiment [5] addresses STE20-like serine/threonine-protein kinase (Homo sapiens) (UniProt Q9H2G2). The experiment in a line: Inhibition of SLK (unknown origin) assessed as residual activity at 1000 nM by KINOMEscan analysis relative to control.
The target of experiment [6] is Peripheral plasma membrane protein CASK (Homo sapiens) (UniProt O14936). The experiment in a line: Inhibition of CASK (unknown origin) assessed as residual activity at 1000 nM by KINOMEscan analysis relative to control.
Sequence of Peripheral plasma membrane protein CASK (Homo sapiens) (O14936 whole entry, looked up): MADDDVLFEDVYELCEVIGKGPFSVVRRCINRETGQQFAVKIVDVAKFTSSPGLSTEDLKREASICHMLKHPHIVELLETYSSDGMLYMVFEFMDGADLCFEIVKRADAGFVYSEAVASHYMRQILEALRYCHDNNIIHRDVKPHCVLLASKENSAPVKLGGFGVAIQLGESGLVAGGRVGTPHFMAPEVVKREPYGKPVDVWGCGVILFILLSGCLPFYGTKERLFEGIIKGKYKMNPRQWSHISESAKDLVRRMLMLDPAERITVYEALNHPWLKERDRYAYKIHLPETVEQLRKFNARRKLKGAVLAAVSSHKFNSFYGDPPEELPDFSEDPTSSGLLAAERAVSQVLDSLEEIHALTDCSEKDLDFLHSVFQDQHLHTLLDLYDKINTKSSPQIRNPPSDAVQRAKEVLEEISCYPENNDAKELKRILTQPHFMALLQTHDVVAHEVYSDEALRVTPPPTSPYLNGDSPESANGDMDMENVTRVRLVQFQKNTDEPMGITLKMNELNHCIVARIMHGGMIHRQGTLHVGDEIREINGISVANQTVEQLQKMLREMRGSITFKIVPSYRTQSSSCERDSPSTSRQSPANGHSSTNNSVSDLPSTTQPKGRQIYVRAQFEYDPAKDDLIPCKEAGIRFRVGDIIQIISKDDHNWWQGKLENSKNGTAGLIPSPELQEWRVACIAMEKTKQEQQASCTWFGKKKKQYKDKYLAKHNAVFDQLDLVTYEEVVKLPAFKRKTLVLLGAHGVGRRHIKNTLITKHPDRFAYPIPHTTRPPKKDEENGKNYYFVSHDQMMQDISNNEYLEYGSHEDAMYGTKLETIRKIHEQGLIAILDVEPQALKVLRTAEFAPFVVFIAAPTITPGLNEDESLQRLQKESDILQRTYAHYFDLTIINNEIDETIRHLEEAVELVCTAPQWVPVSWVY

Sequence of STE20-like serine/threonine-protein kinase (Homo sapiens) (Q9H2G2 whole entry, looked up): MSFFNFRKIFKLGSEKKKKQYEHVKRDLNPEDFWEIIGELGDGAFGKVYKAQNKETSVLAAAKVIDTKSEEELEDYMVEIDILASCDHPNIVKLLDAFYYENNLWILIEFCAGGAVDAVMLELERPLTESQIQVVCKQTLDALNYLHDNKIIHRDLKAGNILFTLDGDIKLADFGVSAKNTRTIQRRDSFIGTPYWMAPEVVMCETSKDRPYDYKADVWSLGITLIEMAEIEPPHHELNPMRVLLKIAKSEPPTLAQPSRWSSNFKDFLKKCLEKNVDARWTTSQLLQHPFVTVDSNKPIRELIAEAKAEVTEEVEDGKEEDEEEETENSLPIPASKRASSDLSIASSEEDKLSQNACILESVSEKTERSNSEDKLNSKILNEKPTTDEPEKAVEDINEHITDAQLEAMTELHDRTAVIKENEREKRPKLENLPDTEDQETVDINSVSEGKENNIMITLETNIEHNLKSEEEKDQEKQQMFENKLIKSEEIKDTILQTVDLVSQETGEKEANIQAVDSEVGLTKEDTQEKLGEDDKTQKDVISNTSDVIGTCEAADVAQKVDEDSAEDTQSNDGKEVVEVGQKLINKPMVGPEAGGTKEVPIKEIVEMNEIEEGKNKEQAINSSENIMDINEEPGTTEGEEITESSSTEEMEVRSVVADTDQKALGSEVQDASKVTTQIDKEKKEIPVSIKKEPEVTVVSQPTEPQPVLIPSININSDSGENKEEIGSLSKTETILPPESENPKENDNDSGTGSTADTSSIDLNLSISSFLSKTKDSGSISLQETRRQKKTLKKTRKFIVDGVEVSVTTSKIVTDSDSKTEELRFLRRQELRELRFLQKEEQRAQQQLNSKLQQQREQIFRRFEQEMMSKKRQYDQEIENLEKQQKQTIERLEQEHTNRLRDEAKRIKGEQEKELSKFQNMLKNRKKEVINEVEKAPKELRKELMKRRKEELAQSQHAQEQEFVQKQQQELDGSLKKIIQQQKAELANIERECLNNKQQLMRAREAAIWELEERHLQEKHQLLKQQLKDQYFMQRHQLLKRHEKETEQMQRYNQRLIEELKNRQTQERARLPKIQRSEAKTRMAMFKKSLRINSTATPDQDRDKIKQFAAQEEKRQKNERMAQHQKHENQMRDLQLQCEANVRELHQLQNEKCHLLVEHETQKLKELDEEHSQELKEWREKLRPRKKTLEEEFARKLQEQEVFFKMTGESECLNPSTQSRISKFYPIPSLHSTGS
Sequence of Bone morphogenetic protein receptor type-1A (Homo sapiens) (P36894 whole entry): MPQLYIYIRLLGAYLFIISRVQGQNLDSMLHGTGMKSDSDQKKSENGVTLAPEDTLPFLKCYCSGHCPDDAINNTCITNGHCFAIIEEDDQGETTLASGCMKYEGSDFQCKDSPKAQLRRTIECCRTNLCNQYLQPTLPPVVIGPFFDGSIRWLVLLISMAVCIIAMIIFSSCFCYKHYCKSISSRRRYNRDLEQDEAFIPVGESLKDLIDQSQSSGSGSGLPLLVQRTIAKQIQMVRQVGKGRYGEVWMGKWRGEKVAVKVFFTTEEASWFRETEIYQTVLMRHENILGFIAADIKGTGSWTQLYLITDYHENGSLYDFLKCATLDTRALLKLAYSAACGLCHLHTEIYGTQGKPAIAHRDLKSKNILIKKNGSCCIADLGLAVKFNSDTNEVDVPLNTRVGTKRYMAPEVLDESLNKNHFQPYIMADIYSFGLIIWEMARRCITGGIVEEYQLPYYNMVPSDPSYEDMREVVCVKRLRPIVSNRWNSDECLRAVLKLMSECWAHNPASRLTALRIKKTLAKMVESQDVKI

With `COc1cc2nc(C)nc(N[C@H](C)c3cccc(-c4cn[nH]c4)c3)c2cc1OC`, the Activity in experiment [1] turned out to be 97%; in experiment [2] it was 100%; in experiment [3], 100%; in experiment [4], 89%; in experiment [5], 61%; in experiment [6] it was 78%.
Consider `COc1cc2ncnc(N[C@H](C)c3cccc4ccccc34)c2cc1OC`, for which the Activity in experiment [1] is 100%; in experiment [2], 73%; in experiment [3] it was 96%; in experiment [4], 100%; in experiment [5], 84%; in experiment [6], 72%.
